Counter-ions that a name gives are not always drawn. Like-named read-outs stand apart in the source and are kept apart here.
How the values were obtained:
[1] = Solubility in water (descriptive); conditions: physical properties stated in detailed description
[2] = background statement on known substance, cited from earlier work
[3] = Tap density of milled dextromethorphan tannate powders; type: physicochemical; conditions: dried to moisture level (K.F.) of 5%, milled to particle size of about 100 mesh

Molecule | solubility in water [2] | Tap Density [3] [g/cc] | other results
COc1ccc2c(c1)[C@]13CCCC[C@@H]1[C@H](C2)N(C)CC3 [dextromethorphan free base, 3-methoxy-17-methyl-9α, 13α, 14α-morphinan] | insoluble | – | solubility in water [1]: insoluble
COc1ccc2c(c1)[C@]13CCCC[C@@H]1[C@H](C2)N(C)CC3 [hydrobromide monohydrate salt, dextromethorphan hydrobromide monohydrate] | – | – | solubility in water ([2]; hydrobromide monohydrate): soluble
O=C(OC[C@H]1O[C@@H](OC(=O)c2cc(O)c(O)c(OC(=O)c3cc(O)c(O)c(O)c3)c2)[C@H](OC(=O)c2cc(O)c(O)c(OC(=O)c3cc(O)c(O)c(O)c3)c2)[C@@H](OC(=O)c2cc(O)c(O)c(OC(=O)c3cc(O)c(O)c(O)c3)c2)[C@@H]1OC(=O)c1cc(O)c(O)c(OC(=O)c2cc(O)c(O)c(O)c2)c1)c1cc(O)c(O)c(OC(=O)c2cc(O)c(O)c(O)c2)c1 [tannic acid] | highly soluble | – | –
dextromethorphan tannate [Commercially available D-M Tannate] | – | 0.313 | –
dextromethorphan tannate [D-M Tannate of the invention] | – | 0.723 | –
dextromethorphan tannate [D-M Tannate synthesized by IPA route (Example 5)] | – | 0.321 | –

From patent US6670370B1 (priority 2001, dated 2003)
